# Assay results published in patent US11198692B2, “Dihydro-pyrrolo-pyridine derivatives” (Pfizer Inc., priority 2017, dated 2021).
# Biological target: T1, Human M4 receptors (Homo sapiens, UniProt P08173)
# T1 construct: expressed in transfected cells
# T1 sequence (P08173 1-479): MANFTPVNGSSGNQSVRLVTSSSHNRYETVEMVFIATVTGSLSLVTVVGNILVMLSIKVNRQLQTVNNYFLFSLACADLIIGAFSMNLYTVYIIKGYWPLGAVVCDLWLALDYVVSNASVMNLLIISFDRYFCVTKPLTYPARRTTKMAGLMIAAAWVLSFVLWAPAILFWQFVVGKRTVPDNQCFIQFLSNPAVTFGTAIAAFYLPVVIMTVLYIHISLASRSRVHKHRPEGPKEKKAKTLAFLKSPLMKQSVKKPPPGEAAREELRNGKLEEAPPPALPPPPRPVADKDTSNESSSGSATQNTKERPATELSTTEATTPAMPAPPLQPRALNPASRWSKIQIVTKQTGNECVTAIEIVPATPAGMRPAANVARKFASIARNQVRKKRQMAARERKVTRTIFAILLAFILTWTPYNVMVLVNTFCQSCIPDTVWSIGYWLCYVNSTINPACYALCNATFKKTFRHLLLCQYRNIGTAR
# Assay: M4 PAM cAMP assay (GloSensor)
# Format: cell-based
# Conditions: HEK293 GloSensor cells expressing hM4, with EC20 acetylcholine and isoproterenol, geometric mean of 2-4 determinations unless footnoted (b: >=5, c: single); for Emax / EC50 Mean Asymptote Maximum (%): Emax = maximum asymptote of fitted dose response curve; for Emax: read-out: EC50 Mean Asymptote Maximum (%)
# Protocol: The M4 cAMP assay was designed to determine the potency and efficacy of muscarinic positive allosteric modulators (PAMs). Human M4 receptors were stably expressed in Human embryonic kidney (HEK293) cells expressed with the Promega GloSensor™ cAMP technology.
# HEK293 GloSensor cells expressing hM4 cells were cultured in growth media containing DMEM with 10% FBS, 1% Penicillin/Streptomycin, 500 μg/mL G418, 200 μg/mL Hygomycin B, and 1% Glutamax. When cells had grown to 80%-90% confluency, cells were harvested and seeded at a density of 25,000 cells/40 μL well, in a 384 white walled plates (Becton Dickinson 356661). Plates were incubated at 37 degrees C. and 5% CO2 for use after 24 hours.
# Compound Preparation for Activator Screen:
# Test compounds were initially prepared as 100% DMSO stock solutions, then transferred and serially diluted in 384-well compound plates (Matrix #4325). Each compound was tested at 10 concentrations in duplicate per experiment. Compound plates are spotted with 0.2 μL/well activator at 400 times the final assay concentration. Positive and negative controls for the compound alone activator response was 10 μM acetylcholine (Sigma # A2661) and DMSO, respectively. EC20 of acetylcholine was also used to define PAM activities.
# Promega GloSensor™reagent (Promega # E1291) had previously been aliquotted. For each experiment, a stock solution of GloSensor™ was thawed out and equilibration medium was prepared with 88% CO2-independent media (Invitrogen #18045088), 10% fetal bovine serum and 2% GloSensor™ cAMP Reagent stock solution. Stock solution was mixed. Culture media in cell plates was discarded, then replaced with 40 μL/well pre-warmed equilibration media, then incubated in the dark at room temperature for 2 hours. During the incubation, stimulation media containing agonist and EC20 acetylcholine was prepared. CO2-independent media containing 50 […] Isoproterenol representing an EC80 of b-adrenergic receptor activity (Sigma #16504, 400 times final concentration) and EC20 acetylcholine in 1.25% DMSO was added to all columns of the compound plate, with the exception of column 12 to allow for EC0 control. […] Compounds are now 5 times the final assay concentration. The plate was mixed using a plate agitator. At the end of the 2 hour GloSensor™ incubation, add 10 μL of the CO2-independent media containing agonist, EC20 acetylcholine and isoproterenol to the cell plate. Cell plate was then incubated for 10 minutes at room temperature, and then read using an EnVision plate reader (Perkin Elmer).
# Data was exported from the EnVision plate reader. The percent effect for each well was determined using the mean values for the positive and negative controls on each plate for each read, specifically 100*(compound−negative control)/(positive control−negative control). Dose response curves were fitted to the compound percent effect data using a 4-parameter logistic fit model. Data was reported as EC50 and Emax, with the Emax as the maximum asymptote of the fitted dose response curve.
SMILES,Emax [%],EC50 [nM],EC50 Mean Asymptote Maximum (%)
"Cc1nc(N)c2c(c1C)CN(C(=O)C[C@@H]1C[C@H]1c1ccc(F)nc1)C2 (single isomer, unassigned) [Example 9, 1-(4-Amino-6,7-dimethyl-1,3-dihydro-2H-pyrrolo[3,4-c]pyridin-2-yl)-2-[trans-2-(6-fluoropyridin-3-yl)cyclopropyl]ethanone]",–,99.4,111%
"CNc1nc(C)c(C)c2c1CN(C(=O)C[C@@H]1C[C@H]1c1cccnc1)C2 (single isomer, unassigned) [Example 10, 1-[6,7-Dimethyl-4-(methylamino)-1,3-dihydro-2H-pyrrolo[3,4-c]pyridin-2-yl]-2-[trans-2-(pyridin-3-yl)cyclopropyl]ethanone]",114,197,–
"CNc1nc(C)c(C)c2c1CN(C(=O)C[C@@H]1C[C@H]1c1ccc(F)nc1)C2 (single isomer, unassigned) [Example 15, 1-[6,7-dimethyl-4-(methylamino)-1,3-dihydro-2H-pyrrolo[3,4-c]pyridin-2-yl]-2-[trans-2-(6-fluoropyridin-3-yl)cyclopropyl]ethanone]",–,795,148%
"Cc1c2c(c(=O)n(C)c1C)CN(C(=O)C[C@@H]1C[C@H]1c1cccnc1)C2 (single isomer, unassigned) [Example 26, 5,6,7-trimethyl-2-{[trans-2-(pyridin-3-yl)cyclopropyl]acetyl}-1,2,3,5-tetrahydro-4H-pyrrolo[3,4-c]pyridin-4-one]",90.8,2140,–
"Cc1c2c(c(=O)n(C)c1C)CN(C(=O)C[C@@H]1C[C@H]1c1cccnc1)C2 (single isomer, unassigned) [Example 27, 5,6,7-trimethyl-2-{[trans-2-(pyridin-3-yl)cyclopropyl]acetyl}-1,2,3,5-tetrahydro-4H-pyrrolo[3,4-c]pyridin-4-one]",–,9.99,95.3%
"CNc1nc(C)c(C)c2c1CN(C(=O)C[C@@H]1C[C@H]1c1cncnc1)C2 (single isomer, unassigned) [Example 29, 1-[6,7-dimethyl-4-(methylamino)-1,3-dihydro-2H-pyrrolo[3,4-c]pyridin-2-yl]-2-[trans-2-(pyrimidin-5-yl)cyclopropyl]ethanone]",96.3,690,–
"CNc1nc(C)c(C)c2c1CN(C(=O)C[C@@H]1C[C@H]1c1ccc(F)cc1)C2 (single isomer, unassigned) [Example 41, 1-[6,7-dimethyl-4-(methylamino)-1,3-dihydro-2H-pyrrolo[3,4-c]pyridin-2-yl]-2-[trans-2-(4-fluorophenyl)cyclopropyl]ethanone]",–,783,145^c %
"CNc1nc(C)c(C)c2c1CN(C(=O)CC1CN(c3ccnc(C(F)(F)F)c3)C1)C2C (single isomer, unassigned) [Example 43, 2-{1-[2-(trifluoromethyl)pyridin-4-yl]azetidin-3-yl}-1-[1,6,7-trimethyl-4-(methylamino)-1,3-dihydro-2H-pyrrolo[3,4-c]pyridin-2-yl]ethanone]",–,3670,152^c %

# Compounds with a lower EC50, results first:
Emax [%],EC50 [nM],EC50 Mean Asymptote Maximum (%),SMILES
94.8,< 1.7,–,"CNc1nc(C)c(C)c2c1CN(C(=O)C[C@H]1C[C@@H]1c1cncnc1)C2 (racemic) [Example 28, 1-[6,7-dimethyl-4-(methylamino)-1,3-dihydro-2H-pyrrolo[3,4-c]pyridin-2-yl]-2-[trans-2-(pyrimidin-5-yl)cyclopropyl]ethanone]"
128,5.32,–,"CNc1nc(C)c(C)c2c1CN(C(=O)C[C@@H]1C[C@H]1c1ccc(Cl)nc1)C2 (racemic) [Example 33, 2-[trans-2-(6-chloropyridin-3-yl)cyclopropyl]-1-[6,7-dimethyl-4-(methylamino)-1,3-dihydro-2H-pyrrolo[3,4-c]pyridin-2-yl]ethanone]"
116,6.96,–,"CNc1nc(C)c(C)c2c1CN(C(=O)CC1CN(c3ccnc(C(F)(F)F)c3)C1)C2C (racemic) [Example 42, 2-{1-[2-(trifluoromethyl)pyridin-4-yl]azetidin-3-yl}-1-[1,6,7-trimethyl-4-(methylamino)-1,3-dihydro-2H-pyrrolo[3,4-c]pyridin-2-yl]ethanone]"
105,3.56,–,"CNc1nc(C)c(C)c2c1CN(C(=O)C[C@@H]1C[C@H]1c1ccc(C)nc1)C2 (racemic) [Example 45, 1-[6,7-dimethyl-4-(methylamino)-1,3-dihydro-2H-pyrrolo[3,4-c]pyridin-2-yl]-2-[trans-2-(6-methylpyridin-3-yl)cyclopropyl]ethanone]"
109,6.45,–,"Cc1nc(N)c2c(c1C)CN(C(=O)C[C@@H]1C[C@H]1c1ccc(F)nc1)C2 (relative stereo) [Example 7, 1-(4-Amino-6,7-dimethyl-1,3-dihydro-2H-pyrrolo[3,4-c]pyridin-2-yl)-2-[trans-2-(6-fluoropyridin-3-yl)cyclopropyl]ethanone]"
99,1.24,–,"Cc1nc(N)c2c(c1C)CN(C(=O)C[C@@H]1C[C@H]1c1ccc(F)nc1)C2 (single isomer, unassigned) [Example 8, 1-(4-Amino-6,7-dimethyl-1,3-dihydro-2H-pyrrolo[3,4-c]pyridin-2-yl)-2-[trans-2-(6-fluoropyridin-3-yl)cyclopropyl]ethanone]"
–,1.6,94.8^b %,"CNc1nc(C)c(C)c2c1CN(C(=O)C[C@@H]1C[C@H]1c1cccnc1)C2 (single isomer, unassigned) [Example 11, 1-[6,7-Dimethyl-4-(methylamino)-1,3-dihydro-2H-pyrrolo[3,4-c]pyridin-2-yl]-2-[trans-2-(pyridin-3-yl)cyclopropyl]ethanone]"
–,0.838,102^b %,"CNc1nc(C)c(C)c2c1CN(C(=O)C[C@@H]1C[C@H]1c1ccc(F)nc1)C2 (single isomer, unassigned) [Example 16, 1-[6,7-dimethyl-4-(methylamino)-1,3-dihydro-2H-pyrrolo[3,4-c]pyridin-2-yl]-2-[trans-2-(6-fluoropyridin-3-yl)cyclopropyl]ethanone]"
–,1.58,95.1%,"CNc1nc(C)c(C)c2c1CN(C(=O)C[C@@H]1C[C@H]1c1cncnc1)C2 (single isomer, unassigned) [Example 30, 1-[6,7-dimethyl-4-(methylamino)-1,3-dihydro-2H-pyrrolo[3,4-c]pyridin-2-yl]-2-[trans-2-(pyrimidin-5-yl)cyclopropyl]ethanone]"
–,6.77,121^c %,"CNc1nc(C)c(C)c2c1CN(C(=O)C[C@@H]1C[C@H]1c1ccc(F)cc1)C2 (single isomer, unassigned) [Example 40, 1-[6,7-dimethyl-4-(methylamino)-1,3-dihydro-2H-pyrrolo[3,4-c]pyridin-2-yl]-2-[trans-2-(4-fluorophenyl)cyclopropyl]ethanone]"
–,1.8,107^c %,"CNc1nc(C)c(C)c2c1CN(C(=O)CC1CN(c3ccnc(C(F)(F)F)c3)C1)C2C (single isomer, unassigned) [Example 44, 2-{1-[2-(trifluoromethyl)pyridin-4-yl]azetidin-3-yl}-1-[1,6,7-trimethyl-4-(methylamino)-1,3-dihydro-2H-pyrrolo[3,4-c]pyridin-2-yl]ethanone]"
